# In patent publication US12480137B2, “Plants having increased tolerance to herbicides” (BASF SE, priority 2014, dated 2025):
# How the values were obtained:
# Assay type in all cases: in vivo, Arabidopsis thaliana
# [1] = tested on: Arabidopsis mutant line Cesa3_S1040L; assay: Growth inhibition of Arabidopsis lines in 48-well plates, tolerance factor from IC50; conditions: growth inhibition seven to ten days after seeding
# Text: (§1) For selection of cellulose biosynthesis inhibitor resistant plants EMS mutagenized seed populations of Arabidopsis thaliana are used. EMS mutagenized seed populations are either bought from Lehle Seeds (1102 South Industrial Blvd. Suite D, Round Rock, Texas USA) or are generated as described elsewhere (Heim D R, et. al. (1989) Plant Physiol. 90: 146-150). Causative mutations in CESA wildtype sequences (e.g. SEQ ID NO: 1 or 3) are identified as described by Scheible W R et. al. (2001, Proc. Natl. Acad. of Sci. 98: 10079-10084), McCourt et. al. (WO2013/142968) or with the use of next generation sequencing methods as described by Austin R S, et. al. (2011) Plant Journal 67: 715-725.
# (§2) Selected Arabidopsis thaliana lines were assayed for improved resistance to azines like 6-cyclopentyl-N4-(2,3,4,5,6-pentafluorophenyl)-1,3,5-triazine-2,4-diamine; 6-(1-fluoro-1-methyl-ethyl)-N4-(2,3,4,5,6-pentafluorophenyl)-1,3,5-triazine-2,4-diamine; 6-cyclohexyl-N2-(2,3,4,5,6-pentafluorophenyl)-1,3,5-triazine-2,4-diamine; 6-(2,6-difluorophenyl)-N2-(2,3,5,6-tetrafluorophenyl)-1,3,5-triazine-2,4-diamine; N2-(4-chloro-3,5,6-trifluoro-2-pyridyl)-6-(1-fluoro-1-methyl-ethyl)-1,3,5-triazine-2,4-diamine in 48-well plates. Therefore, M2 or M3 seeds are surface sterilized by stirring for 5 min in ethanol+water (70+30 by volume), rinsing one time with ethanol+water (70+30 by volume) and two times with sterile, deionized water. The seeds are resuspended in 0.1% agar dissolved in water (w/v) Four to five seeds per well are plated on solid nutrient medium consisting of half-strength murashige skoog nutrient solution, pH 5.8 (Murashige and Skoog (1962) Physiologia Plantarum 15: 473-497). Compounds are dissolved in dimethylsulfoxid (DMSO) and added to the medium prior solidification (final DMSO concentration 0.1%). Multi well plates are incubated in a growth chamber at 22° C., 75% relative humidity and 110 μmol Phot*m^−2*s^−1 with 14:10 h light:dark photoperiod. Growth inhibition is evaluated seven to ten days after seeding in comparison to wild type plants. Tolerance factors are calculated based on IC50 values of growth inhibition of transformed versus non-transformed Arabidopsis plants (Table 3).
# [2] = tested on: Arabidopsis mutant line Cesa3_S1037F; assay: as above; conditions: growth inhibition seven to ten days after seeding
# Text: as §1, §2
# [3] = tested on: wildtype Arabidopsis plants; assay: as above; conditions: growth inhibition seven to ten days after seeding
# Text: as §1, §2
# [4] = tested on: Arabidopsis mutant line Cesa3_S983F; assay: as above; conditions: growth inhibition seven to ten days after seeding
# Text: as §1, §2
# [5] = tested on: Arabidopsis mutant line Cesa1_G1013R; assay: as above; conditions: growth inhibition seven to ten days after seeding
# Text: as §1, §2
# [6] = tested on: Arabidopsis mutant line Cesa1_P1010L; assay: as above; conditions: growth inhibition seven to ten days after seeding
# Text: as §1, §2
# [7] = tested on: Arabidopsis mutant line Cesa1_G1009D; assay: as above; conditions: growth inhibition seven to ten days after seeding
# Text: as §1, §2
# [8] = tested on: Cesa1_G1009D, fpx2-3 mutant line; assay: Greenhouse phytotox, pre-emergent treatment
# Procedure, shortened: (§3)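 Greenhouse tests on M2 or M3 Arabidopsis plants for tolerance to cellulose biosynthesis-inhibiting herbicides, e.g. pentafluorophenyl-, tetrafluorophenyl- or chloro-trifluoropyridyl-substituted 1,3,5-triazine-2,4-diamines. Treatment given pre-emergence or post-emergence 6 weeks after sowing.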
# [9] = tested on: Cesa1_P1010L, fpx2-2 mutant line; assay: Greenhouse phytotox, pre-emergent treatment
# Procedure, shortened: as §3
smiles,measurement,setting,value
"Nc1nc(Nc2c(F)c(F)c(F)c(F)c2F)nc(C2CCCC2)n1 [6-cyclopentyl-N4-(2,3,4,5,6-pentafluorophenyl)-1,3,5-triazine-2,4-diamine]",Relative tolerance rate (wildtype = 1.0),[1],56
same,Relative tolerance rate (wildtype = 1.0),[2],75
same,Relative tolerance rate (wildtype = 1.0),[3],1
same,Relative tolerance rate (wildtype = 1.0),[4],75
same,Relative tolerance rate (wildtype = 1.0),[5],25
same,Relative tolerance rate (wildtype = 1.0),[6],3
same,Relative tolerance rate (wildtype = 1.0),[7],3
same,Phytotox value on a scale from 0-100 (100 is 100% damage),[8]; 0.25 g ai/ha,5
same,Phytotox value on a scale from 0-100 (100 is 100% damage),[8]; 0.98 g ai/ha,25
same,Phytotox value on a scale from 0-100 (100 is 100% damage),[8]; 3.91 g ai/ha,58
same,Phytotox value on a scale from 0-100 (100 is 100% damage),[8]; 15.63 g ai/ha,88
same,Phytotox value on a scale from 0-100 (100 is 100% damage),[9]; 0.25 g ai/ha,0
same,Phytotox value on a scale from 0-100 (100 is 100% damage),[9]; 0.98 g ai/ha,33
same,Phytotox value on a scale from 0-100 (100 is 100% damage),[9]; 3.91 g ai/ha,63
same,Phytotox value on a scale from 0-100 (100 is 100% damage),[9]; 15.63 g ai/ha,98
